Assay results published in ChEMBL document CHEMBL3217423, “Binding of 9-O-(-amino) alkyl ether analogues of the plant alkaloid berberine to poly(A): insights into self-structure induction” (Medchemcomm, 2011).
The source made the active and inactive calls. No cut-off for these calls is given here.

Legend:
[1] = Binding affinity to poly(A) tail mRNA (unknown origin) assessed as melting temperature of poly(A) self-structure by UV absorption/CD melting analysis
[2] = Binding affinity to poly(A) tail mRNA (unknown origin) assessed as association constant by isothermal titration calorimetry relative to berberine
[3] = Binding affinity to poly(A) tail mRNA (unknown origin) assessed as induction of self-structure formation by circular dichroism analysis
[4] = Binding affinity to poly(A) tail mRNA (unknown origin) assessed as induction of self-structure formation by circular dichroic spectroscopy
[5] = Binding affinity to poly(A) tail mRNA (unknown origin) assessed as apparent binding constant by absorption spectroscopy relative to berberine

Row | Tm [1] [°C] | Ratio [2] | Activity [3] | Activity [4] | Ratio [5] | Structure (SMILES)
1 | 59 | 3 | – | – | – | COc1ccc2cc3[n+](cc2c1OCCN)CCc1cc2c(cc1-3)OCO2
2 | 59.5 | 10 | Active | Active | 20 | COc1ccc2cc3[n+](cc2c1OCCCCCCN)CCc1cc2c(cc1-3)OCO2
3 | 58 | – | Active | Active | – | COc1ccc2cc3[n+](cc2c1OCCCCN)CCc1cc2c(cc1-3)OCO2
4 | 58 | – | Active | Active | – | COc1ccc2cc3[n+](cc2c1OC)CCc1cc2c(cc1-3)OCO2 [BERBERINE]
